Results: PMC12175894 (Science Advances, 2025)
Residue numbers refer to the chain shown, from its start.

Columns and labels:
[1] = target: T1, 5-HT1AR (Homo sapiens, UniProt P08908); experiment: GloSensor cAMP assay in HEK293A cells deficient of β-arrestins; type: cell-based; set-up: host or cells: HEK293T, HEK293A, HEK293AΔGs, HEK293AΔGi/o, HEK293AΔARRB1/B2
T1 sequence (P08908 1-422): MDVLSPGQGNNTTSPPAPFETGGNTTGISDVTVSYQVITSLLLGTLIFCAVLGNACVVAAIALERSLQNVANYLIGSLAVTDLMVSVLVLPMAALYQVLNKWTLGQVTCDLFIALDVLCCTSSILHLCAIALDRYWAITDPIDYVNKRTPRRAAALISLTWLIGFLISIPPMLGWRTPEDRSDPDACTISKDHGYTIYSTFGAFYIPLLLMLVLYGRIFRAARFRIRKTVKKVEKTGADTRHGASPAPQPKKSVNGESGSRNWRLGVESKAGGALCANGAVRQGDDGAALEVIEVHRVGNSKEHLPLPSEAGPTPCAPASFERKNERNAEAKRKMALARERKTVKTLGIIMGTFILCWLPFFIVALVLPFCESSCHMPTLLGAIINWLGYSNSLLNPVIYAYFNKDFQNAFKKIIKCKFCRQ

[2] = target: T1, 5-HT1AR; experiment: BRET-based cAMP assay (CAMYEL biosensor) in CHO-K1 cells; type: cell-based
[3] = target: T2, 5-HT1AR wildtype (Homo sapiens, UniProt P08908); experiment: GloSensor inhibition of cAMP accumulation in HEK293AΔGs; type: cell-based
T2 construct: host or cells: HEK293T, HEK293A, HEK293AΔGs, HEK293AΔGi/o, HEK293AΔARRB1/B2
T2 sequence (P08908 1-422): T1 sequence (P08908 1-422)

[4] = target: T3, 5-HT1AR Y96^2.64A (Homo sapiens, UniProt P08908, Y96A); experiment: as above; type: cell-based; settings: for Emax: read-out: Emax [% ± SEM], inhibition of cAMP accumulation
T3 sequence (P08908 1-422 Y96A): T1 sequence (P08908 1-422) with Y96A

[5] = target: T4, 5-HT1AR F112^3.28W (Homo sapiens, UniProt P08908, F112W); experiment: Radioligand competition, displacement of [3H]WAY100635; type: binding
T4 sequence (P08908 1-422 F112W): T1 sequence (P08908 1-422) with F112W

[6] = tested on: 5-HT1AR KO mice; experiment: 52°C hot plate in 5-HT1AR KO mice; type: in vivo, mouse
[7] = target: T5, 5-HT1AR F112^3.28W + M92^2.60F (Homo sapiens, UniProt P08908, F112W/M92F); experiment: GloSensor inhibition of cAMP accumulation in HEK293AΔGs; type: cell-based; settings: for Emax: read-out: Emax [% ± SEM], inhibition of cAMP accumulation
T5 sequence (P08908 1-422 M92F/F112W): T1 sequence (P08908 1-422) with M92F, F112W

[8] = tested on: male C56BL/6 mice; experiment: 52°C hot plate; type: in vivo, mouse; settings: wild-type mice, 10 mg/kg
[9] = target: T2, 5-HT1AR wildtype; experiment: β-arrestin 2 recruitment, enhanced bystander BRET in HEK293T with GRK2; type: cell-based; settings: HEK-293T; read-out: Emax [% ± SEM], β-arrestin 2 recruitment
[10] = tested on: mice; experiment: Elevated plus maze; type: in vivo, mouse
[11] = target: neurotensin NTS1 (Homo sapiens, UniProt P30989); experiment: Radioligand displacement, [3H]NT(8-13)
Chain of neurotensin NTS1 (P30989 whole entry): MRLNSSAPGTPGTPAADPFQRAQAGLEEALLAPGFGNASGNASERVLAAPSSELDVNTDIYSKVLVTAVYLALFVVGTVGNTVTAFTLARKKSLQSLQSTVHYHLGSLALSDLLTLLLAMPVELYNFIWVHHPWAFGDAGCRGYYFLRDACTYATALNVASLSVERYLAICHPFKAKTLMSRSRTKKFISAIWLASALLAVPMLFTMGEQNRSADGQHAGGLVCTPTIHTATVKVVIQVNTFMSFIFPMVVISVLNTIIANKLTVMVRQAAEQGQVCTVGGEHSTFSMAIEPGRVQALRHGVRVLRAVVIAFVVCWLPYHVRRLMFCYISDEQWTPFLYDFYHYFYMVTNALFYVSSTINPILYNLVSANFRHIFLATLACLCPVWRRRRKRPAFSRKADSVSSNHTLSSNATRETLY

Compound: Cc1ccc(CNCC2(F)CCN(C(=O)c3ccc(F)c(Cl)c3)CC2)nc1 [befiradol, reference compound]
- Emax ([1]; HEK293-A; read-out: Emax [%±SEM], inhibition of cAMP accumulation): 89 ± 4%
- Esat [%±SEM] ([1]; HEK Δβ-arrestin, GloSensor): 73 ± 5%
- Emax ([2]; CHO-K1; read-out: Emax [%±SEM], inhibition of cAMP accumulation): 91 ± 3%
- Esat [%±SEM], efficacy at saturating ligand concentrations ([2]; CHOK1, CAMYEL; relative to serotonin maximum inhibition): 65 ± 4%
- Emax ([3]; read-out: Emax [% ± SEM], inhibition of cAMP accumulation): 87 ± 3%
- Emax [4]: 104 ± 5%
- decrease in the binding affinity upon mutation of F112^3.28 to tryptophan ([5]; F112W vs WT): 16 fold
- response latency, hot plate in 5-HT1AR KO mice ([6]; 1.0 mg/kg): no significant antinociceptive effect
- Emax [7]: 99 ± 7%
- response latency, 52°C hot plate [8]: antinociceptive
- Emax [9]: 79 ± 1%

Compound: COc1ccccc1OCCNCCCOc1ccc2c(c1)NC(=O)CO2 [ST171]
- Emax ([1]; HEK293-A, read-out: Emax [%±SEM], inhibition of cAMP accumulation): 60%
- EC50 ([1]; HEK Δβ-arrestin, GloSensor; read-out: EC50 left [nM±SEM], inhibition of cAMP accumulation): 3.5 ± 1 nM
- Emax ([2]; CHO-K1, CAMYEL, PTX addition; read-out: Emax, cAMP effect in the presence of PTX): < 5%
- Emax ([2]; CHO-K1, read-out: Emax [%±SEM], inhibition of cAMP accumulation): 87 ± 1%
- EC50 ([2]; CHOK1, CAMYEL, wildtype; read-out: EC50 left [nM±SEM], inhibition of cAMP accumulation): 0.88 ± 0.3 nM
- EC50 ([3]; HEK293AΔGs, wildtype, read-out: EC50 [nM ± SEM], inhibition of cAMP accumulation): 5.3 ± 0.8 nM
- Emax [% ± SEM], inhibition of cAMP accumulation ([3]; HEK293AΔGs, wildtype, relative to serotonin): 74 ± 3%
- Emax ([3]; read-out: Emax [% ± SEM], inhibition of cAMP accumulation, HEK293AΔGs, wildtype, relative to serotonin): 73%
- EC50 ([4]; HEK293AΔGs, Y96A, read-out: EC50 [nM ± SEM], inhibition of cAMP accumulation): 14 ± 3.5 nM
- Emax [4]: 76 ± 2%
- Ki ([5]; 5-HT1AR F112W, HEK 293T membranes, read-out: Ki [nM ± SEM]): 0.16 nM
- time in center and open arms, plus maze ([10]; 1 or 5 mg/kg, 30 min before test): spent more time in the center
- anxiolytic effect, plus maze ([10]; analgesic dose (10 mg/kg)): anxiolytic effects of the drug disappeared
- response latency, hot plate in 5-HT1AR KO mice ([6]; 10 mg/kg): no significant antinociceptive effect
- EC50 ([7]; HEK293AΔGs, F112W + M92F, read-out: EC50 [nM ± SEM], inhibition of cAMP accumulation): 1.8 ± 0.6 nM
- Emax [7]: 85 ± 11%
- Ki ([11]; Ki [nM ± SD]): > 50000 nM
- Ki ([11]; pKi): > 50100 nM
- response latency, 52°C hot plate [8]: antinociceptive
- Emax [9]: < 5%
